Effectiveness data for two substances are collected here from US20090227507A1, “Angiotensin (1-7) Dosage Forms and Uses Thereof” (UNIVERSITY OF SOUTHERN CALIFORNIA, priority 2008, published 2009).

The assay in a line: Unspecified test of effectiveness of AII fragments.

“Tyr-Ile-His-Pro-Phe (YIHPF; printed: Tyr-Ile-His-Pro-Phe) [AII(4-8)]”: the effectiveness entry is reported as “not to be effective”.

On to His-Pro-Phe [AII(6-8)], for which the effectiveness entry was “not to be effective”.
